Assay results reported in patent publication US20030109525A1, “Crystalline thiazine oxazolidinones” (PHARMACIA & UPJOHN COMPANY, priority 2001, published 2003).

Tests used:
[1] = Bulk drug stability (storage at elevated temperature and humidity, HPLC assay); assay type: physicochemical
Experimental: As referred to in the present application, “stable” in bulk drug stability tests means that at least about 90% by weight, preferably at least about 95% by weight, and more preferably at least about 99% by weight of the bulk drug remains unchanged after storage under the indicated conditions for the indicated time.
Aliquots (about 0.3 mg) of bulk anhydrous crystalline N-({(5S)-3-[4-(1,1-dioxido-4-thiomorpholinyl)-3,5-difluorophenyl]-2-oxo-1,3-oxazolidin-5-yl}methyl)acetamide were weighed into 2-mL vials. The uncapped vials were placed either in a 75% relative humidity chamber (desiccator containing water saturated with sodium chloride) or in a dry chamber (desiccator containing Drierite). The chambers were placed in temperature controlled cabinets at 56° C. and 70° C. A single vial was removed from each desiccator at selected time points and was assayed using high pressure liquid chromatography (HPLC).

[2] = Hygroscopicity by dynamic moisture sorption gravimetry (DMSG); assay type: physicochemical; details: 25° C.
Experimental: X-ray diffraction (XRD) patterns were measured on a Scintag X2 diffractometer (Thermo ARL, Ecublens, Switzerland) equipped with a theta-theta goniometer. Single crystal x-ray diffraction was carried out on a Bruker SMART 6K CCD Area Detector diffractometer (Bruker AXS, Karlsruhe, Germany). Mass spectrometry (MS) (ionization type) was carried out on a Micromass Platform II spectrometer (Micromass, Manchester, United Kingdom). High pressure liquid chromatography (HPLC) was carried out on an Agilent 1100 Series chromatograph (Agilent Technologies, Palo Alto, Calif.). Melting points were determined using a TA Instruments 2920 differential scanning calorimeter (TA Instruments, New Castle, Del.) module with a Thermal Analyst 5000 controller. Hygroscopicity was assessed by dynamic moisture sorption gravimetry (DMSG) using a Controlled Atmosphere Microbalance (Pharmacia Corp., Kalamazoo, Mich.). All chemicals used are available from Aldrich Chemical Co., Milwaukee, Wis., unless otherwise specified. N-({(5S)-3-[3,5-difluoro-4-(4-thiomorpholinyl)phenyl]-2-oxo-1,3-oxazolidin-5-yl}methyl)acetamide was prepared as described in PCT International Publication Number WO 01/98297 (Barbachyn et al.).
DMSG isotherms were collected on the variable temperature controlled atmospheric microbalance. Approximately 10 mg samples were used in the balance. […] The mass was then measured every two minutes. […]

Bulk drug stability, % of initial HPLC peak area ([1]; 56° C., 75% relative humidity, Day 6): 100.1%
Bulk drug stability, % of initial HPLC peak area ([1]; 56° C., 75% relative humidity, Day 13): 99.3%
Bulk drug stability, % of initial HPLC peak area ([1]; 56° C., 75% relative humidity, Day 27): 99.9%
Bulk drug stability, % of initial HPLC peak area ([1]; 56° C., 75% relative humidity, Day 61): 100.1%
Bulk drug stability, % of initial HPLC peak area ([1]; 56° C., dessicator, Day 6): 100.1%
Bulk drug stability, % of initial HPLC peak area ([1]; 56° C., dessicator, Day 13): 99.4%
Bulk drug stability, % of initial HPLC peak area ([1]; 56° C., dessicator, Day 27): 100.0%
Bulk drug stability, % of initial HPLC peak area ([1]; 56° C., dessicator, Day 61): 99.8%
Bulk drug stability, % of initial HPLC peak area ([1]; 70° C., 75% relative humidity, Day 6): 100.1%
Bulk drug stability, % of initial HPLC peak area ([1]; 70° C., 75% relative humidity, Day 13): 99.6%
Bulk drug stability, % of initial HPLC peak area ([1]; 70° C., 75% relative humidity, Day 27): 99.9%
Bulk drug stability, % of initial HPLC peak area ([1]; 70° C., 75% relative humidity, Day 61): 99.9%
Bulk drug stability, % of initial HPLC peak area ([1]; 70° C., dessicator, Day 6): 100.1%
Bulk drug stability, % of initial HPLC peak area ([1]; 70° C., dessicator, Day 13): 99.7%
Bulk drug stability, % of initial HPLC peak area ([1]; 70° C., dessicator, Day 27): 100.0%
Bulk drug stability, % of initial HPLC peak area ([1]; 70° C., dessicator, Day 61): 100.0%
Bulk drug stability in aging tests (in words) ([1]; aging tests): excellent bulk drug stability
Hygroscopicity ([2]; dynamic moisture sorption scan 0 to 87% relative humidity): not hygroscopic
Moisture picked up during dynamic moisture sorption scan ([2]; scan from 0 to 87% relative humidity, 3% humidity steps, equilibrium time not more than 180 minutes per step): approximately 0.2%
Compound: CC(=O)NC[C@H]1CN(c2cc(F)c(N3CCS(=O)(=O)CC3)c(F)c2)C(=O)O1 [Anhydrous Crystalline Form, N-({(5S)-3-[4-(1,1-dioxido-4-thiomorpholinyl)-3,5-difluorophenyl]-2-oxo-1,3-oxazolidin-5-yl}methyl)acetamide]
